From ChEMBL document CHEMBL4507291 (2021)

How the values were obtained:
Details in all cases: Compound concentration 1.0 uM
[1] = target: T1, Activin receptor type-1B (Homo sapiens) (UniProt P36896); assay: ACVR1B (ALK4) Kinase screen
T1 sequence (whole entry): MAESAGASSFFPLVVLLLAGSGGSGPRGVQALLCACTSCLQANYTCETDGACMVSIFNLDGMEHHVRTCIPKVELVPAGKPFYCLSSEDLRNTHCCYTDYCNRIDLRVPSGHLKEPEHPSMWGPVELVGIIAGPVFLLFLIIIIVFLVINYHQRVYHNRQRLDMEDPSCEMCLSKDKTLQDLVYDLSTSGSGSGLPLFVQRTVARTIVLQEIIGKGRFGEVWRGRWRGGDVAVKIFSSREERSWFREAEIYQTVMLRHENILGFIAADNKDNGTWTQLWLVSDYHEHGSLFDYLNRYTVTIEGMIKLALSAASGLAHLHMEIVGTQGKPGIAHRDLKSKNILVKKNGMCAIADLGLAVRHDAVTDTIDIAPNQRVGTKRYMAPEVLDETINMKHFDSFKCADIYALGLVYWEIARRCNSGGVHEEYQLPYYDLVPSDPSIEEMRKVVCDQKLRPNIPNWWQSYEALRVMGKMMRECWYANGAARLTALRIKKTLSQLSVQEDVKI

[2] = target: T2, Cytoplasmic tyrosine-protein kinase BMX (Homo sapiens) (UniProt P51813); assay: BMX Kinase screen
T2 sequence (whole entry): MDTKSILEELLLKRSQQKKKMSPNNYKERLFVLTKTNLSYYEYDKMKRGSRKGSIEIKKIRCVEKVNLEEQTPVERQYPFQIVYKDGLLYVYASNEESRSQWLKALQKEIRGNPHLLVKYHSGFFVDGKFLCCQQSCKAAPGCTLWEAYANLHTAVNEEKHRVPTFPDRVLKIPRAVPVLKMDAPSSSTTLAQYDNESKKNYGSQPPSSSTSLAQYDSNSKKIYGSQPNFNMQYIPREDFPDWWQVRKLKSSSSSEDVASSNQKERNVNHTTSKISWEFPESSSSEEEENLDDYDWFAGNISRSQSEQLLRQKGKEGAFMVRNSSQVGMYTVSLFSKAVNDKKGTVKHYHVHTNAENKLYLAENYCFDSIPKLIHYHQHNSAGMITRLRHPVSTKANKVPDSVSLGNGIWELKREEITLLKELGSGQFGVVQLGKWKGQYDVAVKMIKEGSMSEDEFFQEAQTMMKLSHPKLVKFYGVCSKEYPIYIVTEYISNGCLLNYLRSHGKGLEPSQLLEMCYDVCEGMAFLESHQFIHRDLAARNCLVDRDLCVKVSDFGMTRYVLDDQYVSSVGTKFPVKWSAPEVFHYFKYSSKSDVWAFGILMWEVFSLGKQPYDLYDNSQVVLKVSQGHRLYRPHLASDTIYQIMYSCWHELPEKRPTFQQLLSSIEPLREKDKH

[3] = target: Tyrosine-protein kinase Fer (Homo sapiens) (UniProt P16591); assay: FER Kinase screen
Tyrosine-protein kinase Fer (Homo sapiens), sequence (P16591 whole entry, looked up): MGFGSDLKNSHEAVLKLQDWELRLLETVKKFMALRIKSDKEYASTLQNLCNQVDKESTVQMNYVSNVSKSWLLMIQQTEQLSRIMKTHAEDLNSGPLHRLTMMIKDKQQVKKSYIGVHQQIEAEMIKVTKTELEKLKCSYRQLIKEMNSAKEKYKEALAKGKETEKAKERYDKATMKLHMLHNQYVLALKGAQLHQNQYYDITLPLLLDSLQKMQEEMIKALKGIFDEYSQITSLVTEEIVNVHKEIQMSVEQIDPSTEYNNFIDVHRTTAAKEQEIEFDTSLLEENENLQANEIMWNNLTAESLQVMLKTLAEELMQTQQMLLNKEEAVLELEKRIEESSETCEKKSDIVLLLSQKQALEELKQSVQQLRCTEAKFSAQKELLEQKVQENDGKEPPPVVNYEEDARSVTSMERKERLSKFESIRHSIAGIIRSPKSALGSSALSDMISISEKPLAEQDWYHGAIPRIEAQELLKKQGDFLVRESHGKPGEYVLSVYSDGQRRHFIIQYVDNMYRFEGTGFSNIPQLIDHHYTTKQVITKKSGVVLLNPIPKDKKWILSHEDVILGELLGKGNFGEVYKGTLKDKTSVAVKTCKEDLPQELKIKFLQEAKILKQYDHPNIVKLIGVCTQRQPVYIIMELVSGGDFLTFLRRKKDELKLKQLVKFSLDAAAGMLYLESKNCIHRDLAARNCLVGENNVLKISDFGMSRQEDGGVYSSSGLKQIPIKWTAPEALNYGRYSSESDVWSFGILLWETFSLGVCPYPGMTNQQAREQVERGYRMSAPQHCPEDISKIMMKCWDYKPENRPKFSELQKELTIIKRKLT

[4] = target: T3, Homeodomain-interacting protein kinase 4 (Homo sapiens) (UniProt Q8NE63); assay: HIPK4 Kinase screen
T3 sequence (whole entry): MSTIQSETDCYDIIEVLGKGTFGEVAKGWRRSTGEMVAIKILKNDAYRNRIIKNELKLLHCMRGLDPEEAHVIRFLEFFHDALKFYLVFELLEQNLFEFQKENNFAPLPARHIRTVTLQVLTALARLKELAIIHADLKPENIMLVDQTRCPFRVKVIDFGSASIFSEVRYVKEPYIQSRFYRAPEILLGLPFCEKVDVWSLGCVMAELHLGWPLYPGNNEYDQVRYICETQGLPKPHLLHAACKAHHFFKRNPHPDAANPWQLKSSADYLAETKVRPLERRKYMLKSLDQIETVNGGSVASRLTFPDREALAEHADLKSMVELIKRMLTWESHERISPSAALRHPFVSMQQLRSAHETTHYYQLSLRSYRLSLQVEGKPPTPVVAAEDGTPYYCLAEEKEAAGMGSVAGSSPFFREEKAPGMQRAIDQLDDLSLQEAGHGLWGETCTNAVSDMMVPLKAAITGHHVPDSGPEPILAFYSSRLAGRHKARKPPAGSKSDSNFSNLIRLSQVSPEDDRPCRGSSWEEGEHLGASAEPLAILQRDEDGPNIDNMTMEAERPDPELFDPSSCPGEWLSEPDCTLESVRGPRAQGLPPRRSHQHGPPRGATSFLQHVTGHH

[5] = target: MAP kinase-interacting serine/threonine-protein kinase 1 (Homo sapiens) (UniProt Q9BUB5); assay: MKNK1 (MNK1) Kinase screen
MAP kinase-interacting serine/threonine-protein kinase 1 (Homo sapiens), sequence (Q9BUB5 whole entry, looked up): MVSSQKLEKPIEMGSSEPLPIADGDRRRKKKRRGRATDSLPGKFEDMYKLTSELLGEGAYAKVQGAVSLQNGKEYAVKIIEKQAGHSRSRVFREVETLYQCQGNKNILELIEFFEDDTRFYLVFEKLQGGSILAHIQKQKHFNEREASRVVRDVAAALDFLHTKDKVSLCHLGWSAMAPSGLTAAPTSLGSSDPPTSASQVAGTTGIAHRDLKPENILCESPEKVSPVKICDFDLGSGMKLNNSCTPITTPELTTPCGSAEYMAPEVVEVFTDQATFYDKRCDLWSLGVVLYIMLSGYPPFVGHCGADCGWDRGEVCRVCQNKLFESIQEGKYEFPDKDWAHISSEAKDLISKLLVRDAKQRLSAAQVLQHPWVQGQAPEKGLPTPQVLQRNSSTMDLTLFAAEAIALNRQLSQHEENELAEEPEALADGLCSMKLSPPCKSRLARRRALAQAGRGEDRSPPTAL

[6] = target: T4, Serine/threonine-protein kinase D3 (Homo sapiens) (UniProt O94806); assay: PRKCN (PKD3) Kinase screen
T4 sequence (whole entry): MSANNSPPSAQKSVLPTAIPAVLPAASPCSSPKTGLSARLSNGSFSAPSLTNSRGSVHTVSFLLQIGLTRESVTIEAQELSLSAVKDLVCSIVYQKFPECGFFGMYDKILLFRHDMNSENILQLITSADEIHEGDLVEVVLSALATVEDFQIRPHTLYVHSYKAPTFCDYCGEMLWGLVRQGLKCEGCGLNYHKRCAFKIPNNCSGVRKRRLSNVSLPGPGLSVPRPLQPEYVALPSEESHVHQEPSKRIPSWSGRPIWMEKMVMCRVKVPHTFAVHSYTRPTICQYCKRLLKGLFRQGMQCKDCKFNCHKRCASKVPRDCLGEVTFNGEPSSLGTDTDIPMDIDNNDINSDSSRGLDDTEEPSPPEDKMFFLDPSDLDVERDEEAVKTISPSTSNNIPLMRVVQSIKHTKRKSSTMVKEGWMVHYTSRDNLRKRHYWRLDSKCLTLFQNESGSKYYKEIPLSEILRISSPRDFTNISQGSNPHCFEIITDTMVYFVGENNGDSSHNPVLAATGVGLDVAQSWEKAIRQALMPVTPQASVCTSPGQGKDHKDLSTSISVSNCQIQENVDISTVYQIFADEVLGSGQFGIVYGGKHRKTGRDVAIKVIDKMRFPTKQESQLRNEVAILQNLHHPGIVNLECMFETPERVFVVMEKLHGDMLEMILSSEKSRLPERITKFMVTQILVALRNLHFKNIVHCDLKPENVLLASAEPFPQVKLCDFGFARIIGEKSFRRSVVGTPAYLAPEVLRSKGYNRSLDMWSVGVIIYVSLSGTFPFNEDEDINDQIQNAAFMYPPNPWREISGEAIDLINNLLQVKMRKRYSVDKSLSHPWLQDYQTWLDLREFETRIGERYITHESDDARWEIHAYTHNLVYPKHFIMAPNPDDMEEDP

Measured: inhibition

C[C@@H]1CN(c2cc(-c3n[nH]c4ccc(OC5(C)CC5)cc34)ncn2)C[C@H](C)O1 [MLi-2]
inactive: [1] -0.724% | [2] 14% | [3] 26.7% | [4] 6.2% | [5] -3.19% | [6] 21.1%
